Experimental data taken from EP4671239A1, “ARYL SUBSTITUENT-CONTAINING DEGRADATION AGENT FOR CDK12/13, PREPARATION METHOD THEREFOR, AND PHARMACEUTICAL COMPOSITION AND USE THEREOF” (Shanghai Institute of Organic Chemistry, Chinese Academy of …, priority 2023, dated 2024).
pIC50: −log10 of the molar value.

Columns and labels:
CDK12 and CDK13 proteins [1] = assay: Degradation activity on CDK12/13 in 22RV1 cells (Western Blot); type: cell-based; conditions: 22RV1 cells; for degradation of CDK12 and CDK13 protein levels in cells: 500 nM, 6 hours, WB (FIG. 4); for degradation of CDK12 and CDK13 proteins: 100 nM, 6 h (FIG. 5); for dose dependence of degradation of CDK12 and CDK13 proteins: different concentrations, 6 h (FIG. 4B, FIG. 5)
Protocol: Experimental methods: The cell line, 22RV1 cell line was purchased from the American Type Culture Collection (ATCC). Conventional Western Blot was used for detection as follows: 22RV1 cells were seeded in a certain number in a 12-well plate, and cultured overnight in an incubator in an adherent manner. […] The cells were lysed with a lysis buffer, and samples were collected. Then, an appropriate amount of the samples was taken for SDS-PAGE electrophoresis. After electrophoresis, the proteins were transferred to nitrocellulose membranes using a semi-dry electro-transfer system. The nitrocellulose membrane was placed in a blocking solution (5% skim milk powder diluted in TBS containing 0.1% Tween 20) and blocked at room temperature for 2 h. The membranes were then placed in a primary antibody solution (1: 1000 diluted in TBS containing 0.1% Tween 20), respectively, and incubated at 4°C overnight. The cells were washed three times with TBS containing 0.1% Tween 20, each time for 15 min. The membrane was placed in a secondary antibody solution (horseradish peroxidase-labeled goat anti-rabbit IgG, diluted at 1:1000 in TBS containing 0.1% Tween 20) and reacted at room temperature for 1 h. After washing the membrane three times as above, the membrane was developed with ECL plus reagent and photographed using Amersham Imager 600 system.

[2] = Pharmacokinetics and bioavailability test in rats (Example 60); type: in vivo; conditions: SD rats; for F: bioavailability calculated from AUC; for oral pharmacokinetic properties: summary in words of Tables 2-6; for Cmax / Tmax / clearance / half-life: rat
Protocol: Pharmacokinetics and bioavailability tests in rats. SD rats were given a single oral (10 mg/kg), intravenous (2.5 mg/kg) and intraperitoneal (10 mg/kg) dose, followed by animal blood sample collection at appropriate time points. Heparin was added for anticoagulation, and the samples were centrifuged at 8000 rpm for 6 min. The supernatant was collected and stored at -20°C for HPLC-MS analysis. The blood samples underwent protein precipitation with acetonitrile at 12 000 rpm * 10 min, and the supernatant was used for HPCL-MS analysis. The data underwent parameter fitting with DAS2.0, to obtain compartmental model and non-compartmental model parameters, respectively. The oral bioavailability of the compounds was calculated based on the area under the plasma concentration-time curve (AUC) data. […] Table 2. Pharmacokinetic experimental results of compounds YJZ9069 and YJZ1102

[3] = tested on: prostate cancer VCap cells; assay: Proliferation-inhibiting activity on VCap cells (CellTiter-Glo); type: cell-based; conditions: Homo sapiens; VCap cell line, CellTiter-Glo (FIG. 6)
Protocol: The cell proliferation-inhibiting activity of the compounds was determined using the CellTiter-Glo Luminescent Cell Viability Assay (Promega, Madison, WI). The cells were seeded in a 96-well plate in their respective culture media and incubated at 37°C in a 5% CO2 incubator. After overnight incubation, serial dilutions of the compounds were prepared and added to the 96-well plate. A volume of CellTiter-Glo reagent equal to the volume of the cell culture medium present in each well was added (e.g., 100 microliters of the reagent was added to 100 microliters of the culture medium for the cells in the 96-well plate). The contents were mixed on an orbital shaker for 2 min to induce cell lysis. The 96-well plate was incubated at room temperature for 10 minutes to stabilize a luminescent signal. Luminescence was recorded: the luminescence signal of each well was acquired using an Infinite M1000 Pro plate reader (Tecan, Zürich, Switzerland), and the data were analyzed using GraphPad Prism software (GraphPad Software Inc, La Jolla, CA).

CDK12 and CDK13 proteins [4] = assay: Degradation activity on CDK12/13 in MDA-MB-231 cells (Western Blot); type: cell-based; conditions: 0.1µM or 0.3µM, 15 h, WB (FIG. 1)
Protocol: Experimental methods: The cell line MDA-MB-231 was purchased from the American Type Culture Collection (ATCC). Conventional Western Blot was used for detection, as follows: MDA-MB-231 cells were seeded at a density of 2 x 10^5/mL in a 12-well plate, with 1 mL per well, and cultured overnight in an incubator in an adherent manner. Then, a certain concentration of compounds was added to act for 15 h. The cells were lysed with a lysis buffer, and protein samples were collected. An appropriate amount of the sample was taken for SDS-PAGE electrophoresis. After electrophoresis, the protein was transferred to a polyvinylidene fluoride (PVDF) membrane using a wet electro-transfer system. The PVDF membrane after electro-transfer was cut into several required strips, which were then placed in a blocking solution (5% skim milk powder diluted in TBS containing 0.1% Tween 20) and blocked at room temperature for 1.5 h. A primary antibody solution was prepared by diluting a primary antibody against the corresponding target protein in TBS containing 0.1% Tween 20 according to the dilution requirements of different antibodies, such as 1:1000 (CST), 1:3000 (Proteintech, Bethyl), and 1:200 (Santacruz). The blocked membrane was placed in the corresponding primary antibody solution and incubated at 4°C for 12-14 h. Then, the cells were washed three times with TBS containing 0.1% Tween 20, each time for 5 min. After washing, the membrane was placed in a secondary antibody solution (horseradish peroxidase-labeled goat anti-rabbit IgG, diluted at 1:2000 in TBS containing 0.1% Tween 20) and reacted at room temperature for 2 h. After washing the membrane three times as above, the membrane was developed with StarSignal plus reagent (GenStar®) and Omni-ECL reagent (Yazyme®), and photographed with Amersham Imager 800 system.

[5] = tested on: triple negative breast cancer cells MDA-MB-231; assay: Proliferation-inhibiting activity on MDA-MB-231 cells (Cell Counting Kit-8); type: cell-based; conditions: Homo sapiens, 120 h; MDA-MB-231 cell line, 5 days, cck-8 (FIG. 3)
Protocol: The cell proliferation-inhibiting activity of the compounds was determined using Cell Counting Kit-8 Cell Viability Assay (Selleck.cn). The cells were seeded into a 384-well plate (CORNING® PS 3701) containing the corresponding culture medium and incubated in an incubator at 37°C with 5% CO2. After overnight incubation, a high-concentration stock solution of each compound to be tested was prepared; the compound was added to the 384-well plate according to a concentration gradient using an Echo® 650 Liquid Handler (LABCYTE®). After administration, the cell plate was placed in an incubator at 37°C with 5% CO2 and incubated for 5 days. Then, 5 µL of cck-8 reagent was added to each well of the 384-well plate using MULTIDROP® (Thermo Scientific™), and the plate was returned to the incubator for incubation for 1.5-2 h. After incubation, the plate was removed and centrifuged to remove bubbles. The absorbance of each well at 450 nm and 650 nm was obtained using EnVision® (PerkinElmer®). GraphPad Prism software (GraphPad Software Inc.) was used to process and analyze the data.

[6] = Sprague-Dawley, plasma, IV 2.5 mg/kg
[7] = Sprague-Dawley, plasma, PO 10 mg/kg

O=C1CCC(N2C(=O)c3ccc(N4CCC(N5CCN(c6ccc(N(C(=O)NCc7ccccc7)[C@H]7CC[C@H](Nc8ncc9ccccc9n8)CC7)cc6)CC5)CC4)cc3C2=O)C(=O)N1 (stereo partly shown) [YJZ1105, 3-benzyl-1-(4-(4-(1-(2-(2,6-dioxopiperidin-3-yl)-1,3-dioxoisoindol-5-yl)piperidin-4-yl)-piperazin-1-yl)phenyl)-1-((1r,4r)-4-(quinazolin-2-ylamino)cyclohexyl)urea]
degradation of CDK12 and CDK13 protein levels in cells (CDK12 and CDK13 proteins [1]): effectively degrade
F ([2]; PO 10 mg/kg): 26.64%
oral pharmacokinetic properties [2]: excellent
Cmax [2, 6]: 1390 ng/mL
Tmax [2, 6]: 0.08 h
clearance [2, 6]: 4.8 mL/min/kg
half-life [2, 6]: 7.05 h
Cmax [2, 7]: 625 ng/mL
Tmax [2, 7]: 6 h
half-life [2, 7]: 7.2 h
pIC50 [3]: 7.82

O=C1CCC(N2C(=O)c3cc(F)c(N4CCC(N5CCN(c6ccc(N(C(=O)NCc7ccccc7)[C@H]7CC[C@H](Nc8ncc9ccccc9n8)CC7)cc6)CC5)CC4)cc3C2=O)C(=O)N1 (stereo partly shown) [YJZ1201]
degradation of CDK12 and CDK13 proteins (CDK12 and CDK13 proteins [1]): almost completely degrade
degradation of CDK12 and CDK13 protein levels in cells (CDK12 and CDK13 proteins [1]): effectively degrade
dose dependence of degradation of CDK12 and CDK13 proteins (CDK12 and CDK13 proteins [1]): dose-dependent manner
F ([2]; PO 10 mg/kg): 39.60%
oral pharmacokinetic properties [2]: excellent
Cmax [2, 6]: 2510 ng/mL
Tmax [2, 6]: 0.08 h
clearance [2, 6]: 3.27 mL/min/kg
half-life [2, 6]: 10.8 h
Cmax [2, 7]: 1040 ng/mL
Tmax [2, 7]: 6.67 h
half-life [2, 7]: 12.4 h
pIC50 [3]: 7.19

O=C1CCC(N2C(=O)c3ccc(N4CCN(C5CCN(c6ccc(N(C(=O)NCc7ccccc7)[C@H]7CC[C@H](Nc8ncc9ccccc9n8)CC7)cc6)CC5)CC4)cc3C2=O)C(=O)N1 (stereo partly shown) [YJZ1202, 3-benzyl-1-(4-(4-(2-(2,6-dioxopiperidin-3-yl)-1,3-dioxoisoindole-5-yl)piperazin-1-yl)piperidin-1-ylphenyl)-1-((1r,4r)-4-(quinazolin-2-ylamino)cyclohexyl)urea]
degradation of CDK12 and CDK13 proteins (CDK12 and CDK13 proteins [1]): almost completely degrade
degradation of CDK12 and CDK13 protein levels in cells (CDK12 and CDK13 proteins [1]): effectively degrade
dose dependence of degradation of CDK12 and CDK13 proteins (CDK12 and CDK13 proteins [1]): dose-dependent manner
F ([2]; PO 10 mg/kg): 13.51%
oral pharmacokinetic properties [2]: excellent
Cmax ([2]; in vivo, IV 2.5 mg/kg): 2310 ng/mL
Tmax ([2]; in vivo, IV 2.5 mg/kg): 0.08 h
clearance ([2]; in vivo, IV 2.5 mg/kg): 6.7 mL/min/kg
half-life ([2]; in vivo, IV 2.5 mg/kg): 4.13 h
Cmax ([2]; in vivo, PO 10 mg/kg): 291 ng/mL
Tmax ([2]; in vivo, PO 10 mg/kg): 5.33 h
half-life ([2]; in vivo, PO 10 mg/kg): 3.76 h
pIC50 [3]: 7.76

O=C1CCC(N2C(=O)c3ccc(N4CCC(N5CCN(c6ccc(N(C(=O)NCc7ccccc7F)[C@H]7CC[C@H](Nc8ncc9ccccc9n8)CC7)cc6)CC5)CC4)cc3C2=O)C(=O)N1 (stereo partly shown) [YJZ1203]
degradation of CDK12 and CDK13 proteins (CDK12 and CDK13 proteins [1]): almost completely degrade
degradation of CDK12 and CDK13 protein levels in cells (CDK12 and CDK13 proteins [1]): effectively degrade
dose dependence of degradation of CDK12 and CDK13 proteins (CDK12 and CDK13 proteins [1]): dose-dependent manner
F ([2]; PO 10 mg/kg): 16.95%
oral pharmacokinetic properties [2]: excellent
Cmax [2, 6]: 3060 ng/mL
Tmax [2, 6]: 0.08 h
clearance [2, 6]: 5.22 mL/min/kg
half-life [2, 6]: 6.19 h
Cmax [2, 7]: 382 ng/mL
Tmax [2, 7]: 6.7 h
half-life [2, 7]: 6.4 h
pIC50 [3]: 7.73

O=C1CCC(N2C(=O)c3ccc(N4CCC(N5CCN(c6ccc(N(C(=O)NCc7ccccc7)[C@H]7CC[C@H](Nc8ncc9ccccc9n8)CC7)cc6F)CC5)CC4)cc3C2=O)C(=O)N1 (stereo partly shown) [YJZ1204, 3-benzyl-1-(4-(4-(1-(2-(2,6-dioxopiperidin-3-yl)-1,3-dioxoisoindole-5-yl)piperidin-4-yl)-piperazin-1-yl)-3-fluorophenyl)-1-((1r,4r)-4-(quinazolin-2-ylamino)cyclohexyl)urea]
degradation of CDK12 and CDK13 proteins (CDK12 and CDK13 proteins [1]): almost completely degrade
degradation of CDK12 and CDK13 protein levels in cells (CDK12 and CDK13 proteins [1]): effectively degrade
dose dependence of degradation of CDK12 and CDK13 proteins (CDK12 and CDK13 proteins [1]): dose-dependent manner
F ([2]; PO 10 mg/kg): 30.13%
oral pharmacokinetic properties [2]: excellent
Cmax [2, 6]: 2290 ng/mL
Tmax [2, 6]: 0.08 h
clearance [2, 6]: 6.01 mL/min/kg
half-life [2, 6]: 8.54 h
Cmax [2, 7]: 457 ng/mL
Tmax [2, 7]: 7.33 h
half-life [2, 7]: 10.8 h
pIC50 [3]: 7.63

O=C1CCC(N2C(=O)c3ccc(N4CCC(N5CCN(c6ccc(N(C(=O)NCc7ccccc7)[C@H]7CC[C@H](Nc8ncc9ccccc9n8)CC7)cn6)CC5)CC4)cc3C2=O)C(=O)N1 (stereo partly shown) [YJZ1205]
degradation of CDK12 and CDK13 proteins (CDK12 and CDK13 proteins [1]): almost completely degrade
degradation of CDK12 and CDK13 protein levels in cells (CDK12 and CDK13 proteins [1]): effectively degrade
dose dependence of degradation of CDK12 and CDK13 proteins (CDK12 and CDK13 proteins [1]): dose-dependent manner
F ([2]; PO 10 mg/kg): 15.87%
oral pharmacokinetic properties [2]: excellent
Cmax [2, 6]: 3620 ng/mL
Tmax [2, 6]: 0.08 h
clearance [2, 6]: 3.93 mL/min/kg
half-life [2, 6]: 3.81 h
Cmax [2, 7]: 581 ng/mL
Tmax [2, 7]: 4.7 h
half-life [2, 7]: 4.2 h
pIC50 [3]: 7.87

N#Cc1ccc(N[C@H]2CC[C@H](N(C(=O)NCc3ccccc3)c3ccc(N4CCN(CC5CN(c6ccc7c(c6)C(=O)N(C6CCC(=O)NC6=O)C7=O)C5)CC4)cc3)CC2)nc1 (stereo partly shown) [ZLC5-6]
degradation of CDK12 and CDK13 protein levels in cells (CDK12 and CDK13 proteins [4]): effectively degrade
pIC50 [5]: 6.30

N#Cc1ccc(N[C@H]2CC[C@H](N(C(=O)NCc3ccccc3)c3ccc(N4CCN(C(=O)C5CCN(c6ccc7c(c6)C(=O)N(C6CCC(=O)NC6=O)C7=O)CC5)CC4)cc3)CC2)nc1 (stereo partly shown) [ZLC5-31]
degradation of CDK12 and CDK13 protein levels in cells (CDK12 and CDK13 proteins [4]): effectively degrade
pIC50 [5]: 6.41

N#Cc1ccc(N[C@H]2CC[C@H](N(C(=O)NCc3ccccc3)c3ccc(N4CCN(C[C@H]5CCN(c6ccc7c(c6)C(=O)N(C6CCC(=O)NC6=O)C7=O)C5)CC4)cc3)CC2)nc1 (stereo partly shown) [ZLC6-1]
degradation of CDK12 and CDK13 protein levels in cells (CDK12 and CDK13 proteins [4]): effectively degrade
pIC50 [5]: 6.54
